Laboratory results published in patent publication EP4691468A1, “PHARMACEUTICAL COMPOSITION FOR TREATING INFLAMMATORY BOWEL DISEASE” (EA Pharma Co., Ltd., priority 2023, dated 2024).

Assay: Phase 1 single-dose administration study: plasma concentration of Compound (2) by LC/MS/MS
Conditions: for Average Plasma Concentrations of Compound (2) after Single-Dose Administration: oral; for Judgment Trough Value / Plasma Concentration Trough Value: Measured Value, Single, Once
Method: A phase 1 clinical trial was conducted to evaluate the safety, tolerability, and pharmacokinetics of Compound (1) when orally administered to healthy adult males.
This clinical trial was a single-center, randomized, double-blind, placebo-controlled, single and multiple ascending dose study with the primary objective of evaluating the safety and tolerability of Compound (1) when orally administered to healthy adult males.
The subjects in each cohort consisted of 8 people, of which 6 were assigned to Compound (1) and 2 were assigned to placebo, and they were administered the drug.
The plasma concentration of Compound (2) was measured using a validated measurement method. Specifically, plasma was separated from collected blood and processed, and then the plasma concentration was measured by an LC/MS/MS apparatus.
Compound (1) was orally administered once to 6 healthy adult males per dose and dosage form at doses of 6, 20, 100, 200, and 400 mg in the form of hard capsules (CAP), liquid self-emulsifying drug delivery system (L-SEDDS), or soft capsule self-emulsifying drug delivery system (C-SEDDS).

For Cc1cc(=O)n(-c2ccc(C[C@H](NC(=O)c3cc(F)c(NS(=O)(=O)c4ccc(NC(=O)C(C)(C)C)cc4)cc3F)C(=O)O)cn2)c(=O)n1C [Compound (2)], the “Average Plasma Concentrations of Compound (2) after Single-Dose Administration” value (from here on “Average Plasma Concentrations”) (Compound (1) 100 mg CAP, Time 6 h) was 1.906 ng/mL, the “Average Plasma Concentrations” value (Compound (1) 100 mg CAP, Time 7 h) was 1.498 ng/mL and the “Average Plasma Concentrations” value (Compound (1) 100 mg CAP, Time 8 h) was 1.357 ng/mL. For the same molecule, the “Average Plasma Concentrations” value (Compound (1) 100 mg CAP, Time 12 h) was 1.276 ng/mL, the “Average Plasma Concentrations” value (Compound (1) 100 mg CAP, Time 15 h) was 1.135 ng/mL and the “Average Plasma Concentrations” value (Compound (1) 100 mg CAP, Time 21 h) was 1.046 ng/mL. For the same molecule, the “Average Plasma Concentrations” value (Compound (1) 100 mg CAP, Time 24 h) was 1.030 ng/mL, the “Average Plasma Concentrations” value (Compound (1) 200 mg C-SEDDS, Time 0.5 h) was “Below quantitation limit” and the “Average Plasma Concentrations” value (Compound (1) 200 mg C-SEDDS, Time 1 h) was “Below quantitation limit”. For the same molecule, the “Average Plasma Concentrations” value (Compound (1) 200 mg C-SEDDS, Time 1.5 h) was 2.14 ng/mL, the “Average Plasma Concentrations” value (Compound (1) 200 mg C-SEDDS, Time 2 h) was 6.68 ng/mL and the “Average Plasma Concentrations” value (Compound (1) 200 mg C-SEDDS, Time 2.5 h) was 10.5 ng/mL. The “Average Plasma Concentrations” value (Compound (1) 200 mg C-SEDDS, Time 3 h) was 13.4 ng/mL, the “Average Plasma Concentrations” value (Compound (1) 200 mg C-SEDDS, Time 4 h) was 14.2 ng/mL and the “Average Plasma Concentrations” value (Compound (1) 200 mg C-SEDDS, Time 5 h) was 10.4 ng/mL. The “Average Plasma Concentrations” value (Compound (1) 200 mg C-SEDDS, Time 6 h) was 5.91 ng/mL, the “Average Plasma Concentrations” value (Compound (1) 200 mg C-SEDDS, Time 7 h) was 3.46 ng/mL and the “Average Plasma Concentrations” value (Compound (1) 200 mg C-SEDDS, Time 8 h) was 3.33 ng/mL. For the same molecule, the “Average Plasma Concentrations” value (Compound (1) 200 mg C-SEDDS, Time 12 h) was 2.48 ng/mL, the “Average Plasma Concentrations” value (Compound (1) 200 mg C-SEDDS, Time 15 h) was 2.14 ng/mL and the “Average Plasma Concentrations” value (Compound (1) 200 mg C-SEDDS, Time 21 h) was 1.85 ng/mL. The “Average Plasma Concentrations” value (Compound (1) 200 mg C-SEDDS, Time 24 h) was 1.69 ng/mL, the “Average Plasma Concentrations” value (Compound (1) 200 mg L-SEDDS, Time 0.5 h) was 4.28 ng/mL and the “Average Plasma Concentrations” value (Compound (1) 200 mg L-SEDDS, Time 1 h) was 11.5 ng/mL. The “Average Plasma Concentrations” value (Compound (1) 200 mg L-SEDDS, Time 1.5 h) was 14.2 ng/mL, the “Average Plasma Concentrations” value (Compound (1) 200 mg L-SEDDS, Time 2 h) was 13.5 ng/mL and the “Average Plasma Concentrations” value (Compound (1) 200 mg L-SEDDS, Time 2.5 h) was 13.0 ng/mL. For the same molecule, the “Average Plasma Concentrations” value (Compound (1) 200 mg L-SEDDS, Time 3 h) was 10.9 ng/mL, the “Average Plasma Concentrations” value (Compound (1) 200 mg L-SEDDS, Time 4 h) was 9.50 ng/mL and the “Average Plasma Concentrations” value (Compound (1) 200 mg L-SEDDS, Time 5 h) was 6.46 ng/mL. The “Average Plasma Concentrations” value (Compound (1) 200 mg L-SEDDS, Time 6 h) was 3.97 ng/mL, the “Average Plasma Concentrations” value (Compound (1) 200 mg L-SEDDS, Time 7 h) was 2.89 ng/mL and the “Average Plasma Concentrations” value (Compound (1) 200 mg L-SEDDS, Time 8 h) was 2.54 ng/mL. The “Average Plasma Concentrations” value (Compound (1) 200 mg L-SEDDS, Time 12 h) was 2.07 ng/mL, the “Average Plasma Concentrations” value (Compound (1) 200 mg L-SEDDS, Time 15 h) was 2.00 ng/mL and the “Average Plasma Concentrations” value (Compound (1) 200 mg L-SEDDS, Time 21 h) was 2.11 ng/mL. For the same molecule, the “Average Plasma Concentrations” value (Compound (1) 200 mg L-SEDDS, Time 24 h) was 2.25 ng/mL, the “Average Plasma Concentrations” value (Compound (1) 400 mg L-SEDDS, Time 0.5 h) was 8.84 ng/mL and the “Average Plasma Concentrations” value (Compound (1) 400 mg L-SEDDS, Time 1 h) was 36.7 ng/mL. The “Average Plasma Concentrations” value (Compound (1) 400 mg L-SEDDS, Time 1.5 h) was 45.6 ng/mL, the “Average Plasma Concentrations” value (Compound (1) 400 mg L-SEDDS, Time 2 h) was 45.0 ng/mL and the “Average Plasma Concentrations” value (Compound (1) 400 mg L-SEDDS, Time 2.5 h) was 40.1 ng/mL. For the same molecule, the “Average Plasma Concentrations” value (Compound (1) 400 mg L-SEDDS, Time 3 h) was 31.8 ng/mL, the “Average Plasma Concentrations” value (Compound (1) 400 mg L-SEDDS, Time 4 h) was 22.6 ng/mL and the “Average Plasma Concentrations” value (Compound (1) 400 mg L-SEDDS, Time 5 h) was 14.3 ng/mL. The “Average Plasma Concentrations” value (Compound (1) 400 mg L-SEDDS, Time 6 h) was 8.41 ng/mL, the “Average Plasma Concentrations” value (Compound (1) 400 mg L-SEDDS, Time 7 h) was 6.54 ng/mL and the “Average Plasma Concentrations” value (Compound (1) 400 mg L-SEDDS, Time 8 h) was 4.76 ng/mL. The “Average Plasma Concentrations” value (Compound (1) 400 mg L-SEDDS, Time 12 h) was 4.34 ng/mL, the “Average Plasma Concentrations” value (Compound (1) 400 mg L-SEDDS, Time 15 h) was 3.90 ng/mL and the “Average Plasma Concentrations” value (Compound (1) 400 mg L-SEDDS, Time 21 h) was 3.98 ng/mL. For the same molecule, the “Average Plasma Concentrations” value (Compound (1) 400 mg L-SEDDS, Time 24 h) was 3.79 ng/mL, the “Judgment Trough Value” (6/CAP) was “C (less than IC50 (1.9 ng/mL))” and the “Judgment Trough Value” (20/CAP) was “C (less than IC50 (1.9 ng/mL))”. The “Plasma Concentration Trough Value” (20/CAP) was 0.25 ng/mL, the “Judgment Trough Value” (100/CAP) was “C (less than IC50 (1.9 ng/mL))” and the “Plasma Concentration Trough Value” (100/CAP) was 1.03 ng/mL. The “Judgment Trough Value” (200/C-SEDDS) was “C (less than IC50 (1.9 ng/mL))”, the “Plasma Concentration Trough Value” (200/C-SEDDS) was 1.69 ng/mL and the “Judgment Trough Value” (200/L-SEDDS) was “B (IC50 (1.9 ng/mL) or higher and less than IC90 (6.9 ng/mL))”. For the same molecule, the “Plasma Concentration Trough Value” (200/L-SEDDS) was 2.25 ng/mL, the “Judgment Trough Value” (400/L-SEDDS) was “B (IC50 (1.9 ng/mL) or higher and less than IC90 (6.9 ng/mL))” and the “Plasma Concentration Trough Value” (400/L-SEDDS) was 3.79 ng/mL. For the same molecule, the “trough value resulting from C-SEDDS relative to the trough value resulting from L-SEDDS” value (single-dose administration, 200 mg) was “about 75%”.
